Series [1] has as its system MCF-7^ADR cells. Briefly: [^3 H] VBL accumulation in MCF-7^ADR cells. Format: cell-based, human. How it is done:
5:231-243 (1985)) and provide sufficient free TAM levels in the ER-positive cells.
(§1) While many PGP-reversing agents have been studied, the majority are maximally active in vitro at concentrations≥10 μM. It is widely acknowledged that, for many of these compounds, it is impossible to achieve this level in the sera of patients without inducing severe dose limiting toxicities (Miller, T. P. et al., J. Clin. Oncol. 9:17-24 (1991); Murren & Hait, Oncology Res. 1:1-6 (1992); Dalton, W. D. et al., J. Clin. Oncol. 7:415-424 (1989); Miller, R. L. et al., J. Clin Oncol. 6:880-888 (1988)). Our compounds were evaluated in vitro using concentrations likely to be pharmacologically relevant. […] To determine potency relative to verapamil, we compared the equieffective concentrations. […]. Oncol. 9:17-24 (1991); Dalton, W. D. et al., J. Clin. Oncol. 7:415-424 (1989)). Similar serum levels of progestagens are achieved in patients receiving standard dosing, e.g. megesterol acetate (0.7 μM) (Lundgren & Lonning, J. Steroid. Biochem. 36:105-109 (1990)).
(§2) We then determined the relative potency for increasing [^3 H] VBL accumulation in control (parental) and resistant cells (MCF-7^ADR) and/or MDR1 transduced in comparison with progesterone and verapamil. […]. […]

Series [2] concerns CL 10.3 cells. Briefly: [^3 H] VBL accumulation in MDR1-transduced CL 10.3 cells. The class given is cell-based, human. How it is done: While many PGP-reversing agents have been studied, the majority are maximally active in vitro at concentrations≥10 μM. […] Our compounds were evaluated in vitro using concentrations likely to be pharmacologically relevant. […] To determine potency relative to verapamil, we compared the equieffective concentrations. […] Oncol.
We then determined the relative potency for increasing [^3 H] VBL accumulation in control (parental) and resistant cells (MCF-7^ADR) and/or MDR1 transduced in comparison with progesterone and verapamil.

For series [3], the system named is MCF-7^ADR cells and cells transfected with the MDR gene (CL 10.3). The class given is cell-based, human. How it is done: as §1, §2
Series [4] relates to sensitive parental cells. Briefly: Effect in sensitive (parental) control cells: VBL accumulation and resistance reversal. Format: cell-based, human. An excerpt:
We then determined the relative potency for increasing [^3 H] VBL accumulation in control (parental) and resistant cells (MCF-7^ADR) and/or MDR1 transduced in comparison with progesterone and verapamil. […]. […] […].
(§3) The ability of compound 4 to reverse both [^3 H]

The subject of series [5] is MCF-7^ADR cells. As to the method:
(§4) The growth inhibition experiments, i.e., anchorage dependent and independent assays, are designed to allow evaluation of drug interactions by isobologram analysis. Thus, they include a full definition of the dose-response curves relative to the single agents (untreated and up to 8 drug concentrations), all combinations of 5 concentrations of the modulating agent (e.g., C7 analogue) and up to 9 concentrations of the target agent. […] Briefly, cell monolayers are treated with the appropriate drugs, reversing agents and vehicle(s), the monolayers washed 3 times with growth media, gently trypsinized, and suspended in 1.5 ml growth medium containing 0.6% (w/v) agar at 41° C. […] This agar solution is placed over a solid bottom agar layer and incubated for 10 days at 37° C. Dishes are refed with 500 μl of growth medium on days 3 and 6. Colonies of 50 cells or more (~60 μm diameter) are counted using an Omnicron electronic colony counter. Statistical analyses of colony forming ability will be performed using ANOVA.
(§5) Dose-response curves of the cytotoxic drug are obtained in the absence and presence of the chemosensitizer. The curves are corrected by dividing the observed survival values by the fractional survival to the chemosensitizer alone (where present in the combination), and IC50 values obtained by interpolation on the corrected curves. The activity of the chemosensitizer will be quantified as FS=IC50 (-)/IC50 (+), where FS=Fold Sensitization, and IC50 (-) and IC50 (+) are the cytotoxic drug IC50 s respectively in the absence and presence of the chemosensitizer.

For series [6], the system named is MDA435/LCC6^MDR1 cells. The note with it: 1 μM compound 4. As to the method: as §4, §5
Series [7] relates to PGP-resistant cells. Briefly: PGP-mediated resistance reversal (VBL cytotoxicity, continuous exposure). Format: cell-based. The following applies: preliminary data. An excerpt:
(§6) Information on drug stability in serum also may be indirectly assessed by comparing effects on [^3 H] VBL accumulation with cytotoxicity (reversing) assays using a continuous exposure. For example, Thimmaiah, K. N. et al. (J. Med. Chem. 35:3358-3364 (1992)) reported that some phenoxazine analogues increased [^3 H] VBL accumulation but were ineffective at reversing VBL cytotoxicity. […] VBL accumulation and reversing PGP-mediated resistance.

The format of series [8] is in vitro ADME.
Text: as §6, §3

[9] abbreviates: MCF-7^ADR and MDR-transfected cells, up to.

Take `CC(=O)C1CCC2C3C(Sc4ccc(NC(=O)NCCc5ccccc5)cc4)CC4=CC(=O)CCC4(C)C3CCC12C` (stereo not shown) [Compound 4]: in series [1], the “concentration equieffective with the ED50 of verapamil for increasing intracellular VBL: fold lower than progesterone” value is given as 35 fold and the “concentration equieffective with the ED50 of verapamil for increasing intracellular VBL: fold lower than verapamil” value is reported as 5 fold. Also, in series [2], the “concentration equieffective with the ED50 of verapamil for increasing intracellular VBL: fold lower than progesterone” value is recorded as 30 fold and the “concentration equieffective with the ED50 of verapamil for increasing intracellular VBL: fold lower than verapamil” value stood at 7 fold. Also, the “maximal increase in intercellular VBL relative to verapamil” value in series [3] is on record as “equivalent to that achievable with verapamil”. In series [3] (setting [9]), the “potency relative to progesterone (fold more potent)” value was “up to 35 fold” and the “potency relative to verapamil, equal-molar basis (ratio of ED50 s)” value is reported as “up to 6 fold”. Moreover, the “potency relative to verapamil in vitro (VBL accumulation and cytotoxicity)” value in series [3] (human) is given as at least 6 fold. Moreover, the “effectiveness among the novel C7 analogs” value in series [3] (preliminary analyses) is reported as “more effective of the novel C7 analogs”. Moreover, the “increasing [^3 H] VBL accumulation” value in series [3] (preliminary data) is given as “highly potent”. For the same compound, in series [3] (up to), the “potency in increasing [^3 H] VBL accumulation relative to the lead compound (progesterone)” value is listed as “up to 35 fold” and the “potency in increasing [^3 H] VBL accumulation relative to verapamil” value is reported as “up to 7 fold”. Moreover, the “specificity for PGP” value in series [4] (PGP-resistant vs sensitive parental cells) was “specific for PGP”. The “activity in sensitive control cell populations” value in series [4] (sensitive control / parental cells) was “not in sensitive control cell populations”. Besides, the “fold sensitization to VBL at VBL's IC50” value in series [5] (1 μM compound 4, MCF-7^ADR) is listed as “up to 9 fold”. Moreover, in series [5] (MCF-7^ADR, 1 μM compound 4, from an initial 32-fold), the “residual VBL resistance” value stood at 3.8 fold. In series [5] (human), the “potency relative to progesterone in increasing VBL cytotoxicity” value is “approximately 23 fold” and the “potency relative to verapamil in increasing VBL cytotoxicity” value is “approximately 6 fold”. Moreover, in series [6] (transduced MDA435/LLC6 cells), the “fold sensitization to VBL at VBL's IC50” value was found to be 20 fold. Further, in series [6] (MDA435/LCC6MDR1, from an initial 49-fold), the “residual VBL resistance” value came to 2.4 fold. Moreover, the “reversing PGP-mediated resistance” value in series [7] is reported as “highly potent”. Moreover, in series [8], the stability in vitro entry is given as “stable in vitro”.

These data come from patent US6143737A, “Progesterone analogs to reverse multidrug resistance” (priority 1996, dated 2000).
